Experimental data from patent US20060241108A1, “Substituted phenoxazines and acridones as inhibitors of AKT” (St. Jude Children's Research Hospital, priority 2005, published 2006).

How the values were obtained:
AKT1ΔPH = target: T1, AKT1ΔPH (Homo sapiens, UniProt P31749); experiment: In vitro kinase assay with recombinant AKT lacking the pleckstrin homology domain; type: biochemical; details: AKTΔPH versus full-length AKT
T1 construct: purchased Upstate Biotechnology
Description: In vitro inhibition of recombinant AKT. In vitro kinase assays can be performed using an active, recombinant, full length AKT1/PKBα protein (available from Upstate Biotechnology, Lake Placid, N.Y.) or with an active, recombinant AKT1/PKBα protein, referred to herein as AKT1ΔPH, that lacks the pleckstrin homology domain (also available from Upstate Biotechnology). 10 ng of the recombinant enzyme in 25 μl 1× kinase buffer (25 mM Tris, pH 7.5; 5 mM β-glycerol phosphate; 2 mM dithiothreitol; 0.1 mM Na3VO4; and 10 mM MgCl2) is mixed with 2.5 μl of DMSO and a test compound (5 μM). Samples are incubated on ice for 1 hour, at which time 1 μg of GSK-3 fusion protein (Cell Signaling Technology, Beverly, Mass., catalog #9278) is added followed by ATP (200 μM) to each reaction mixture. After incubating the suspensions at 30° C. for 30 minutes, the reaction can be terminated by the addition of 3×SDS sample buffer (187.5 mM Tris-HCl, pH 6.8; 6% SDS; 30% glycerol; 150 mM dithiothreitol; and 0.03% bromophenol blue). The samples are then boiled for five minutes. The proteins can be separated on a 12% SDS polyacrylamide gel, and subsequently transferred to a nitrocellulose membrane. The membranes are preferably incubated with rabbit polyclonal anti-phospho-GSK-3α/β (Ser21/9) antibody (available from Cell Signaling Technology, Beverly, Mass., catalog # 9331). […]

Rh18 cells = experiment: Cell growth inhibition, Rh18 cells; type: cell-based, human; details: complete medium, six days, nuclei counted
Description: Cell lines and growth conditions. The human cell lines Rh1, Rh18, and Rh30 (ATCC Deposit # CRL 2061) have been described, e.g., by Hazelton et al. Cancer Res 1987;47:4501-4507 and Hosoi et al. Cancer Res. 1999;59:886-894. Rh1, Rh18 and Rh30 cells can each be grown in antibiotic free RPMI-1640 medium (available from BioWhittaker, Walkersville, Md.), supplemented with 10% fetal bovine serum (available from HyClone Laboratories, Logan, Utah) and 2 mM L-glutamine (available from BioWhittaker, Walkersville, Md.) at 37° C. in an atmosphere of 5% CO2. For serum free experiments, cells can be cultured in modified N2E (MN2E) medium (DMEM/F-12, 1:1 mixture) (Sigma, St. Louis, Mo.) supplemented with 1 μg/ml human holo transferrin, 30 nM sodium selenite, 20 nM progesterone, 100 μM putrescine, 30 nM vitamin E phosphate, and 50 μM ethanolamine. […]
Cell growth inhibition. […] Growth can be assessed after lysing cells, and counting nuclei. […]
The effect(s) of compounds, including phenoxazine compounds such as those listed in Table I, above, on cell growth can be evaluated in cell-based assays such as the exemplary assays described here. Rh1, Rh18 and/or Rh30 cells grown in complete medium can be exposed to graded concentrations of test compound (e.g., from 0.1 to 25 μM) for six days, at which time the cells can be lysed and their growth assessed by counting nuclei. […]

Rh30 cells = experiment: Determination of apoptosis (Annexin V-FITC/propidium iodide flow cytometry), Rh30 cells; details: Rh30, 7.5 μM, four days, n = 3
Description: Determination of apoptosis. An ApoAlert™ Annexin V-FITC Apoptosis kit (available from Clontech, Palo Alto, Calif.) can be used to evaluate the extent of apoptosis within cell populations. Cells (Rh1: 350,000 per 75-cm^2 flask; Rh18: 800,000 per 75-cm^2 flask; or Rh30: 500,000 per 75-cm^2 flask) are preferably grown overnight in complete medium. On day 1, cells are treated with DMSO (0.1%; vehicle control) or with a test compound (e.g., a phenoxazine or acridone compound). After 4 days, the cells are trypsinized, washed with PBS, and resuspended in 200 μl of binding buffer. Cells are then incubated with 10 μl of annexin V-FITC (final concentration, 1 μg/ml) and 500 ng of propidium iodide in a final volume of 410 μl. Cells are preferably incubated at room temperature in the dark for ten minutes before flow cytometric analysis with an FACSCalibur™ Flow Cytometry System (Becton Dickinson, San Jose, Calif.).
For instance, Rh1, Rh18 and/or Rh30 cells can be grown in complete medium with 0.1% DMSO (as a negative control) or with one or more test compounds, e.g., any of the phenoxazine compounds listed in Table I, above, including but not limited to the compounds 10B, 11B, 13B, 14B or 15B. […] Cells are then harvested, and the extent of apoptosis evaluated, e.g., by an ApoAlert™ (Clontech, Palo Alto, Calif.) flow cytometric assay.

T1 sequence (P31749 118-480 limits assumed, stated change not applied): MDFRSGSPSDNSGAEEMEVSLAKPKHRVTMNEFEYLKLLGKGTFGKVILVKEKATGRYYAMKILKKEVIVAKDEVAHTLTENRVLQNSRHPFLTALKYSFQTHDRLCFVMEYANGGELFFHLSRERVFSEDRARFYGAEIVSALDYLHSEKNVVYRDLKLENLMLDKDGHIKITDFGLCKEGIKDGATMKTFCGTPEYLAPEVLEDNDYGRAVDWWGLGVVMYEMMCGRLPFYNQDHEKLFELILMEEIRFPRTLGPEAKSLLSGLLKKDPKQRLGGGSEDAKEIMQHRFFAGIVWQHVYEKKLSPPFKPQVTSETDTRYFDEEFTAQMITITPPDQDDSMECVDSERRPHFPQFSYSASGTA

| Compound | ability to inhibit AKT kinase activity after deletion of the PH domain (AKT1ΔPH) | IC50 (Rh18 cells) | Percentage of cells ± SD, Apoptotic (Rh30 cells) | Percentage of cells ± SD, Viable (Rh30 cells) |
| --- | --- | --- | --- | --- |
| CCN(CC)CCCCN1c2ccccc2Oc2ccc(Cl)cc21 [Compound 10B, 10-[4′-(N-diethylamino)butyl]-2-chlorophenoxazine] | unaffected by deletion of the PH domain | 5 µM | 43.00 ± 2.17% | 56.67 ± 2.62% |
| 10-[4′-[(β-hydroxyethyl)piperazino]butyl]-2-chlorophenoxazine [Compound 15B] | unaffected by deletion of the PH domain | 5 µM | 88.67 ± 1.69% |  |
